# Target: T1, Full length human CDC7 protein co-expressed with DBF4 (Homo sapiens, UniProt O00311)
# T1 construct: Full length human CDC7 protein co-expressed with DBF4; purchased SignalChem (China)
# Test: CDC7 Kinase Biochemical Assay (ADP-Glo, PDKtide substrate)
# Settings: 0.1 nM CDC7/DBF4, 1 μM ATP, 10 μM PDKtide, 4 h reaction
# Procedure: CDC7 Kinase Biochemical Assay PROTOCOL:
# Full length human CDC7 protein co-expressed with DBF4 was purchased from SignalChem (China). CDC7 kinase activity was determined with PDKtide (SignalChem) as a substrate and by measuring ADP production using the ADP-Glo™ Kinase Assay kit (Promega) following the manufacturer's instructions. The kinase reaction was performed using the following conditions: Buffer: 40 mM Tris pH 7.5, 20 mM MgCl2, 0.1 mg/mL BSA and 50 μM DTT. Final reaction mix contained 0.1 nM CDC7/DBF4, 1 μM ATP and 10 μM PDKtide. The kinase reaction time was 4 h. The ADP-Glo signal was measured using an EnVision plate reader (PerkinELmer).
# Percent inhibition of CDC7 kinase activity was calculated based on the following formula:
# [formula] • SSample: the signal of compounds • SHigh Ctrl: the signal of high control (DMSO) • SLow Ctrl: the signal of low control (positive control CDC7 inhibitor)
# T1 sequence (O00311 whole entry): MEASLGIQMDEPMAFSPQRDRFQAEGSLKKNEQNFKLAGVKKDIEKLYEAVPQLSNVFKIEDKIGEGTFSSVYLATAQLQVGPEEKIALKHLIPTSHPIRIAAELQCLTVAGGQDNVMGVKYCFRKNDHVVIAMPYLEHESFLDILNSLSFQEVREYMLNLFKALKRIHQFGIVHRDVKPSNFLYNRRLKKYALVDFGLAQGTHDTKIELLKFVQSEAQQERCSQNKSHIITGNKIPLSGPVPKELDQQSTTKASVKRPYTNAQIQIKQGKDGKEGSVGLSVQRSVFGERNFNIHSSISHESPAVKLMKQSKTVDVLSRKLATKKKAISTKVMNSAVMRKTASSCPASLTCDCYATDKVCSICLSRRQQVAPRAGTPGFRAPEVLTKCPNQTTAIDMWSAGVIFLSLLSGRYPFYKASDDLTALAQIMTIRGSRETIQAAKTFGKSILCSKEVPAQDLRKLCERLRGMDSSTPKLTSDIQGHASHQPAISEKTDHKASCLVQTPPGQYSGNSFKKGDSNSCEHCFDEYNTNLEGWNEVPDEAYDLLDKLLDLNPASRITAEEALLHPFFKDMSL
# T1 sequence (Q9UBU7 whole entry partner): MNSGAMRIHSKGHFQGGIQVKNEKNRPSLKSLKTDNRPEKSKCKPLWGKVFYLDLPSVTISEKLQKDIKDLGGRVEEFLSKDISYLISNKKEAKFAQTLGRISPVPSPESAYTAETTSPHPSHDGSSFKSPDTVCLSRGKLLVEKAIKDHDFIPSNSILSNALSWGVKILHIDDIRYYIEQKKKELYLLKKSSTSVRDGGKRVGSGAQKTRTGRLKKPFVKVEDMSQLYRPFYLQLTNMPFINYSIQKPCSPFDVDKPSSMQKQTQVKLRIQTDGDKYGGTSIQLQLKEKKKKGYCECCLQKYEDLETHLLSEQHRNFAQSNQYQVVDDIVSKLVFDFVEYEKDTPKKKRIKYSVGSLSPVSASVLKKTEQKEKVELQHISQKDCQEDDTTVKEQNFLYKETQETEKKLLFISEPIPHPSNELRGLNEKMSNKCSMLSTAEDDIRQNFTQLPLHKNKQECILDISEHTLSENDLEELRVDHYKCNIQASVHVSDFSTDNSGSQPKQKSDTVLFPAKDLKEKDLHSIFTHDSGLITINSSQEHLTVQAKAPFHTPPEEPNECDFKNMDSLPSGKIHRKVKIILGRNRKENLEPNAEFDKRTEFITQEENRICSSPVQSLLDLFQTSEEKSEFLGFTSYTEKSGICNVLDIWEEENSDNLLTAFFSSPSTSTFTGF
row,Structure (SMILES),IC50 [nM]
1,"O=c1[nH]c2c(c3cc(-c4cn[nH]c4)sc13)CCC[C@@H]2O (single isomer, unassigned) [Compound 3]",1 to 10
2,"O=c1[nH]c2c(c3cc(-c4cn[nH]c4)sc13)CCC[C@@H]2N1CCC(F)(F)C1 (single isomer, unassigned) [Compound 6]",> 10
3,"CO[C@@H]1COCc2c1[nH]c(=O)c1sc(-c3cn[nH]c3)cc21 (single isomer, unassigned) [Compound 11]",> 10
4,"O=c1[nH]c2c(c3cc(-c4cn[nH]c4)sc13)CC(F)(F)C[C@H]2N1CCC1 (single isomer, unassigned) [Compound 12]",1 to 10
5,"C[C@]1(CO)CC(F)(F)Cc2c1[nH]c(=O)c1sc(-c3cn[nH]c3)cc21 (single isomer, unassigned) [Compound 14]",1 to 10
6,"CC(C)C1(O)COCc2c1[nH]c(=O)c1sc(-c3cn[nH]c3)cc21 (single isomer, unassigned) [Compound 17]",1 to 10
7,"CCC1(O)COCc2c1[nH]c(=O)c1sc(-c3cn[nH]c3)cc21 (single isomer, unassigned) [Compound 19]",> 10
8,"CC(C)(C)[C@]1(O)COCc2c1[nH]c(=O)c1sc(-c3cn[nH]c3)cc21 (single isomer, unassigned) [Compound 21]",1 to 10
9,"CC(C)(C)[C@]1(O)COCc2c1[nH]c(=O)c1sc(-c3ccncc3)cc21 (single isomer, unassigned) [Compound 23]",> 10
10,"Cc1n[nH]cc1-c1cc2c3c([nH]c(=O)c2s1)C(O)(C(C)C)COC3 (single isomer, unassigned) [Compound 25]",1 to 10
11,"CC(C)C1(O)COCc2c1[nH]c(=O)c1sc(-c3c[nH]nc3F)cc21 (single isomer, unassigned) [Compound 26]",1 to 10
12,"O=c1[nH]c2c(c3cc(-c4cn[nH]c4)sc13)COCC2(O)C(F)(F)F (single isomer, unassigned) [Compound 29]",1 to 10
13,"Cn1nccc1-c1cc2c3c([nH]c(=O)c2s1)C(O)(C(F)(F)F)COC3 (single isomer, unassigned) [Compound 31]",1 to 10
14,"Cc1n[nH]cc1-c1cc2c3c([nH]c(=O)c2s1)C(O)(C(F)(F)F)COC3 (single isomer, unassigned) [Compound 33]",1 to 10
15,"CC1(CO)OCCc2c1[nH]c(=O)c1sc(-c3cn[nH]c3)cc21 (single isomer, unassigned) [Compound 34]",> 10
16,"O=c1[nH]c2c(c3cc(-c4cn[nH]c4)sc13)CCCC2(O)C(F)F (single isomer, unassigned) [Compound 36]",> 10
17,"COC1(C)CCCc2[nH]c(=O)c3sc(-c4cn[nH]c4)cc3c21 (single isomer, unassigned) [Compound 38]",1 to 10
18,"O=c1[nH]c2c(c3cc(-c4cn[nH]c4)sc13)COCC2(O)C(F)F (single isomer, unassigned) [Compound 43]",1 to 10
19,"CC(C)C1(O)COCc2c1[nH]c(=O)c1sc(-c3ccncc3)cc21 (single isomer, unassigned) [Compound 45]",> 10
20,"CC(C)C1(O)COCc2c1[nH]c(=O)c1sc(-c3ccns3)cc21 (single isomer, unassigned) [Compound 47]",> 10
21,"COCC1(O)CC(F)(F)Cc2c1[nH]c(=O)c1sc(-c3cn[nH]c3)cc21 (single isomer, unassigned) [Compound 48]",> 10
22,"CCC1(O)CC(F)(F)Cc2c1[nH]c(=O)c1sc(-c3cn[nH]c3)cc21 (single isomer, unassigned) [Compound 50]",1 to 10
23,"COC1(C)CC(F)(F)Cc2c1[nH]c(=O)c1sc(-c3cn[nH]c3)cc21 (single isomer, unassigned) [Compound 52]",1 to 10
24,"CC1(O)CC(F)(F)Cc2c1[nH]c(=O)c1sc(-c3cn[nH]c3)cc21 (single isomer, unassigned) [Compound 55]",1 to 10
25,"CC(C)(O)C1(C)OCCc2c1[nH]c(=O)c1sc(-c3cn[nH]c3)cc21 (single isomer, unassigned) [Compound 56]",> 10
26,"CC(C)(O)C1(C)OCCc2c1[nH]c(=O)c1sc(-c3cn[nH]c3)cc21 (single isomer, unassigned) [Compound 57]",1 to 10
27,"CC(C)(C)C1(O)COCc2c1[nH]c(=O)c1sc(-c3ccncc3F)cc21 (single isomer, unassigned) [Compound 60]",1 to 10
28,"Cc1cc(-c2cc3c4c([nH]c(=O)c3s2)C(O)(C(C)(C)C)COC4)ccn1 (single isomer, unassigned) [Compound 62]",> 10
29,"CC(C)(C)C1(O)COCc2c1[nH]c(=O)c1sc(-c3ncncc3Cl)cc21 (single isomer, unassigned) [Compound 64]",1 to 10
30,"CC(C)(C)C1(O)COCc2c1[nH]c(=O)c1sc(-c3c[nH]nc3F)cc21 (single isomer, unassigned) [Compound 65]",> 10

# Now from value to compound:
row,IC50 [nM],Structure (SMILES)
1,≤ 1,"O=c1[nH]c2c(c3cc(-c4cn[nH]c4)sc13)CCC[C@H]2O (single isomer, unassigned) [Compound 4]"
2,≤ 1,"O=c1[nH]c2c(c3cc(-c4cn[nH]c4)sc13)CCC[C@H]2N1CCC(F)(F)C1 (single isomer, unassigned) [Compound 5]"
3,≤ 1,"CO[C@H]1COCc2c1[nH]c(=O)c1sc(-c3cn[nH]c3)cc21 (single isomer, unassigned) [Compound 10]"
4,≤ 1,"O=c1[nH]c2c(c3cc(-c4cn[nH]c4)sc13)CC(F)(F)C[C@@H]2N1CCC1 (single isomer, unassigned) [Compound 13]"
5,≤ 1,"C[C@@]1(CO)CC(F)(F)Cc2c1[nH]c(=O)c1sc(-c3cn[nH]c3)cc21 (single isomer, unassigned) [Compound 15]"
6,≤ 1,"Cc1n[nH]cc1-c1cc2c3c([nH]c(=O)c2s1)C(O)(C(C)C)COC3 (single isomer, unassigned) [Compound 24]"
7,≤ 1,"O=c1[nH]c2c(c3cc(-c4cn[nH]c4)sc13)COCC2(O)C(F)(F)F (single isomer, unassigned) [Compound 28]"
8,≤ 1,"CC1(CO)OCCc2c1[nH]c(=O)c1sc(-c3cn[nH]c3)cc21 (single isomer, unassigned) [Compound 35]"
9,≤ 1,"COC1(C)CCCc2[nH]c(=O)c3sc(-c4cn[nH]c4)cc3c21 (single isomer, unassigned) [Compound 39]"
10,≤ 1,"COCC1(O)CC(F)(F)Cc2c1[nH]c(=O)c1sc(-c3cn[nH]c3)cc21 (single isomer, unassigned) [Compound 49]"
11,≤ 1,"COC1(C)CC(F)(F)Cc2c1[nH]c(=O)c1sc(-c3cn[nH]c3)cc21 (single isomer, unassigned) [Compound 53]"
12,≤ 1,"CC1(O)CC(F)(F)Cc2c1[nH]c(=O)c1sc(-c3cn[nH]c3)cc21 (single isomer, unassigned) [Compound 54]"
13,≤ 1,"Cc1cc(-c2cc3c4c([nH]c(=O)c3s2)C(O)(C(C)(C)C)COC4)ccn1 (single isomer, unassigned) [Compound 61]"
14,≤ 1,"CC(C)(C)C1(O)COCc2c1[nH]c(=O)c1sc(-c3ncncc3Cl)cc21 (single isomer, unassigned) [Compound 63]"
15,≤ 1,"CC(C)(C)C1(O)COCc2c1[nH]c(=O)c1sc(-c3c[nH]nc3F)cc21 (single isomer, unassigned) [Compound 66]"

# — patent US20240199634A1, “CYCLIC COMPOUNDS AND METHODS OF USING SAME” (SCHRÖDINGER, INC., priority 2021, published 2024)
